“And” between values parts separate entries of the source, which are not always exact repeats. Equal entries are not always repeated.
Conditions: 303.15 K, Liquid, Vibrating tube method

CCCCCC(=O)OCC(COC(=O)CCCCC)(COC(=O)CCCCC)COC(=O)CCCCC [pentaerythritol tetrahexanoate]
Conditions	mass density
12760 kPa	996.5 kg/m3
12780 kPa	996.4 kg/m3
12799 kPa	996.4 kg/m3
12822 kPa	996.5 kg/m3
12861 kPa	996.4 kg/m3
12903 kPa	996.4 kg/m3
12922 kPa	996.5 kg/m3
12946 kPa	996.6 kg/m3
12965 kPa	996.4 kg/m3
12985 kPa	996.5 kg/m3
13005 kPa	996.5 kg/m3
13307 kPa	996.6 kg/m3
13327 kPa	996.7 kg/m3
13352 kPa	996.8 kg/m3
13373 kPa	996.7 kg/m3
13394 kPa	996.7 kg/m3
13419 kPa	996.7 kg/m3
13439 kPa	996.8 kg/m3
13465 kPa	996.9 kg/m3
13486 kPa	996.8 kg/m3
13507 kPa	996.8 kg/m3
13533 kPa	996.8 kg/m3
13554 kPa	996.8 kg/m3
13576 kPa	996.7 kg/m3
13598 kPa	996.9 kg/m3
13624 kPa	996.9 kg/m3
13645 kPa	996.9 kg/m3
13671 kPa	997 kg/m3
13693 kPa	996.8 kg/m3
13715 kPa	996.9 kg/m3
13737 kPa	997 kg/m3
13763 kPa	997 kg/m3
13786 kPa	997 kg/m3
13808 kPa	997 kg/m3
13835 kPa	996.9 kg/m3
13857 kPa	997.1 kg/m3
13880 kPa	997 kg/m3
13902 kPa	997 kg/m3
13929 kPa	997 kg/m3
13952 kPa	997.1 kg/m3
13975 kPa	997.1 kg/m3
14002 kPa	997.2 kg/m3
14025 kPa	997 kg/m3
14052 kPa	997.1 kg/m3
14098 kPa	997.1 kg/m3
14126 kPa	997.1 kg/m3
14149 kPa	997.1 kg/m3
14174 kPa	997.2 kg/m3
14198 kPa	997.1 kg/m3
14222 kPa	997.2 kg/m3
14250 kPa	997.2 kg/m3
14273 kPa	997.2 kg/m3
14301 kPa	997.2 kg/m3
14324 kPa	997.3 kg/m3
14348 kPa	997.3 kg/m3
14371 kPa	997.4 kg/m3
14400 kPa	997.4 kg/m3
14423 kPa	997.3 kg/m3
14447 kPa	997.4 kg/m3
14476 kPa	997.4 kg/m3
14499 kPa	997.4 kg/m3
14522 kPa	997.3 kg/m3
14545 kPa	997.5 kg/m3
14569 kPa	997.4 kg/m3
14596 kPa	997.5 kg/m3
14620 kPa	997.5 kg/m3
14643 kPa	997.6 kg/m3
14671 kPa	997.4 kg/m3
14695 kPa	997.4 kg/m3
14722 kPa	997.4 kg/m3
14746 kPa	997.6 kg/m3
14770 kPa	997.6 kg/m3
14798 kPa	997.6 kg/m3
14823 kPa	997.5 kg/m3
14847 kPa	997.5 kg/m3
14871 kPa	997.6 kg/m3
14900 kPa	997.6 kg/m3
15031 kPa	997.7 kg/m3
15056 kPa	997.7 kg/m3
15080 kPa	997.7 kg/m3
15110 kPa	997.8 kg/m3
15293 kPa	997.8 kg/m3
15647 kPa	998.1 kg/m3
15670 kPa	998.2 kg/m3
15694 kPa	998.1 kg/m3
15716 kPa	998 kg/m3
15743 kPa	998.1 kg/m3
15766 kPa	998.1 kg/m3
15789 kPa	998 kg/m3
15816 kPa	998.1 kg/m3
15838 kPa	998.2 kg/m3
15888 kPa	998.2 kg/m3
15911 kPa	998.2 kg/m3
15933 kPa	998.3 kg/m3
15961 kPa	998.4 kg/m3
15983 kPa	998.3 kg/m3
16011 kPa	998.3 kg/m3
16034 kPa	998.3 kg/m3
16056 kPa	998.4 kg/m3
16083 kPa	998.3 kg/m3
16106 kPa	998.4 kg/m3
16127 kPa	998.2 kg/m3
16149 kPa	998.4 kg/m3
16175 kPa	998.4 kg/m3
16197 kPa	998.3 kg/m3
16218 kPa	998.4 kg/m3
16244 kPa	998.5 kg/m3
16266 kPa	998.4 kg/m3
16288 kPa	998.4 kg/m3
16313 kPa	998.4 kg/m3
16335 kPa	998.5 kg/m3
16357 kPa	998.5 kg/m3
16384 kPa	998.5 kg/m3
16406 kPa	998.7 kg/m3
16427 kPa	998.5 kg/m3
16447 kPa	998.5 kg/m3
16471 kPa	998.6 kg/m3
16491 kPa	998.5 kg/m3
16512 kPa	998.6 kg/m3
16532 kPa	998.5 kg/m3
16557 kPa	998.7 kg/m3
16578 kPa	998.7 kg/m3
16599 kPa	998.5 kg/m3
16624 kPa	998.6 kg/m3
16644 kPa	998.7 kg/m3
16666 kPa	998.7 kg/m3
16687 kPa	998.7 kg/m3
16708 kPa	998.5 kg/m3
16732 kPa	998.7 kg/m3
16752 kPa	998.7 kg/m3
16772 kPa	998.7 kg/m3
16796 kPa	998.7 kg/m3
16840 kPa	998.8 kg/m3
16860 kPa	998.9 kg/m3
16880 kPa	998.8 kg/m3
16904 kPa	998.8 kg/m3
16924 kPa	998.8 kg/m3
16945 kPa	998.9 kg/m3
16966 kPa	998.9 kg/m3
16990 kPa	998.8 kg/m3
17010 kPa	998.9 kg/m3
17035 kPa	999 kg/m3
17056 kPa	999 kg/m3
17077 kPa	999 kg/m3
17098 kPa	999 kg/m3
17124 kPa	999 kg/m3
17144 kPa	998.9 kg/m3
17164 kPa	998.9 kg/m3
17186 kPa	998.9 kg/m3
17201 kPa	998.9 kg/m3
17216 kPa	998.9 kg/m3
17229 kPa	999.1 kg/m3
17243 kPa	999 kg/m3
17245 kPa	999 kg/m3
17247 kPa	999.1 kg/m3
17248 kPa	999.1 kg/m3
17250 kPa	999.1 kg/m3
17251 kPa	999 kg/m3
17252 kPa	999 kg/m3
17253 kPa	999 kg/m3
17254 kPa	999.1 kg/m3
17256 kPa	999 kg/m3
17265 kPa	999 kg/m3
17267 kPa	999.1 kg/m3
17272 kPa	999 kg/m3
17282 kPa	999 kg/m3
17286 kPa	999 kg/m3
17289 kPa	999 kg/m3
17290 kPa	998.9 kg/m3 and 999 kg/m3
17296 kPa	999.1 kg/m3
17310 kPa	999.2 kg/m3
17330 kPa	999.1 kg/m3
17334 kPa	999.1 kg/m3
17348 kPa	999.1 kg/m3
17353 kPa	999 kg/m3
17354 kPa	999.2 kg/m3
17377 kPa	999.2 kg/m3
17400 kPa	999.1 kg/m3
17428 kPa	999.2 kg/m3
17452 kPa	999.1 kg/m3
17475 kPa	999.3 kg/m3
17503 kPa	999.1 kg/m3
17526 kPa	999.1 kg/m3
17550 kPa	999.3 kg/m3
17577 kPa	999.3 kg/m3
17917 kPa	999.3 kg/m3
17939 kPa	999.5 kg/m3
17961 kPa	999.4 kg/m3
17988 kPa	999.5 kg/m3
18010 kPa	999.4 kg/m3
18037 kPa	999.5 kg/m3
18060 kPa	999.6 kg/m3
18083 kPa	999.5 kg/m3
18105 kPa	999.5 kg/m3
18132 kPa	999.4 kg/m3
18155 kPa	999.6 kg/m3
18178 kPa	999.7 kg/m3
18205 kPa	999.6 kg/m3
18228 kPa	999.6 kg/m3
18256 kPa	999.6 kg/m3
18279 kPa	999.6 kg/m3
18302 kPa	999.6 kg/m3
18325 kPa	999.7 kg/m3
18353 kPa	999.6 kg/m3
18377 kPa	999.8 kg/m3
18400 kPa	999.7 kg/m3
18428 kPa	999.7 kg/m3
18452 kPa	999.6 kg/m3
18476 kPa	999.8 kg/m3
18504 kPa	999.8 kg/m3
18528 kPa	999.8 kg/m3
18551 kPa	999.7 kg/m3
18580 kPa	999.9 kg/m3
18604 kPa	1000 kg/m3
18628 kPa	1000 kg/m3
18657 kPa	999.8 kg/m3
18917 kPa	1000 kg/m3
18943 kPa	1000 kg/m3
18968 kPa	999.9 kg/m3
18998 kPa	1000 kg/m3
19024 kPa	1000 kg/m3
19049 kPa	1000.2 kg/m3
19074 kPa	1000 kg/m3
19104 kPa	1000.1 kg/m3
19128 kPa	1000 kg/m3
19154 kPa	1000.1 kg/m3
19177 kPa	1000.1 kg/m3
19199 kPa	1000.2 kg/m3
19226 kPa	1000.2 kg/m3
19249 kPa	1000.3 kg/m3
19273 kPa	1000.2 kg/m3
19296 kPa	1000.3 kg/m3
19323 kPa	1000.1 kg/m3
19346 kPa	1000.2 kg/m3
19374 kPa	1000.3 kg/m3
19397 kPa	1000.3 kg/m3
19420 kPa	1000.3 kg/m3
19443 kPa	1000.3 kg/m3
19471 kPa	1000.3 kg/m3
19495 kPa	1000.2 kg/m3
19518 kPa	1000.3 kg/m3
19546 kPa	1000.4 kg/m3
19570 kPa	1000.4 kg/m3
19595 kPa	1000.3 kg/m3
19618 kPa	1000.4 kg/m3
19642 kPa	1000.4 kg/m3
19670 kPa	1000.4 kg/m3
19694 kPa	1000.4 kg/m3
19718 kPa	1000.6 kg/m3
19747 kPa	1000.4 kg/m3
19771 kPa	1000.5 kg/m3
19795 kPa	1000.5 kg/m3
19824 kPa	1000.4 kg/m3
19849 kPa	1000.5 kg/m3
19873 kPa	1000.6 kg/m3
19904 kPa	1000.6 kg/m3
19928 kPa	1000.6 kg/m3
19952 kPa	1000.6 kg/m3
19977 kPa	1000.5 kg/m3
20006 kPa	1000.7 kg/m3
20031 kPa	1000.6 kg/m3
20056 kPa	1000.7 kg/m3
20081 kPa	1000.6 kg/m3
20111 kPa	1000.7 kg/m3
20136 kPa	1000.8 kg/m3
20162 kPa	1000.8 kg/m3
20192 kPa	1000.7 kg/m3
20217 kPa	1000.9 kg/m3
20248 kPa	1000.8 kg/m3
20274 kPa	1000.8 kg/m3
20299 kPa	1000.9 kg/m3
20324 kPa	1000.8 kg/m3
20350 kPa	1000.8 kg/m3
20381 kPa	1000.8 kg/m3
20406 kPa	1000.9 kg/m3
20432 kPa	1000.9 kg/m3
20463 kPa	1000.9 kg/m3
20489 kPa	1000.9 kg/m3
20515 kPa	1000.8 kg/m3
20547 kPa	1000.9 kg/m3
20573 kPa	1001 kg/m3
20600 kPa	1000.9 kg/m3
20627 kPa	1001 kg/m3
20658 kPa	1001 kg/m3
20685 kPa	1001.1 kg/m3
20716 kPa	1001 kg/m3
20743 kPa	1001 kg/m3
20770 kPa	1001 kg/m3
20797 kPa	1001 kg/m3
20829 kPa	1001 kg/m3
